Data published in patent US20230255943A1, “MMP-9 AND MMP-12 INHIBITION FOR TREATING SPINAL CORD INJURY OR RELATED INJURY TO NEUROLOGICAL TISSUE” (The University of Birmingham, priority 2020, published 2023).

What was measured:
MMP-9 [1] = target: T1, MMP-9 (Mus musculus, UniProt P41245); test: MMP-9 enzyme activity after SCI in mice (SensoLyte 520 fluorimetric assay); type: in vivo; settings: for suppression of MMP-9 activity in CSF / suppression of MMP-9 activity in serum / suppression of MMP-9 activity in spinal cord tissues: DC injury; for suppression of MMP-9 activity in spinal cord tissues: lowest most effective dose; for lowest most effective dose: suppression of MMP-9 and MMP-12 activity
T1 construct: from tissue; host or cells: mouse spinal cord lesion site homogenate, serum and CSF
T1 sequence (P41245 108-730): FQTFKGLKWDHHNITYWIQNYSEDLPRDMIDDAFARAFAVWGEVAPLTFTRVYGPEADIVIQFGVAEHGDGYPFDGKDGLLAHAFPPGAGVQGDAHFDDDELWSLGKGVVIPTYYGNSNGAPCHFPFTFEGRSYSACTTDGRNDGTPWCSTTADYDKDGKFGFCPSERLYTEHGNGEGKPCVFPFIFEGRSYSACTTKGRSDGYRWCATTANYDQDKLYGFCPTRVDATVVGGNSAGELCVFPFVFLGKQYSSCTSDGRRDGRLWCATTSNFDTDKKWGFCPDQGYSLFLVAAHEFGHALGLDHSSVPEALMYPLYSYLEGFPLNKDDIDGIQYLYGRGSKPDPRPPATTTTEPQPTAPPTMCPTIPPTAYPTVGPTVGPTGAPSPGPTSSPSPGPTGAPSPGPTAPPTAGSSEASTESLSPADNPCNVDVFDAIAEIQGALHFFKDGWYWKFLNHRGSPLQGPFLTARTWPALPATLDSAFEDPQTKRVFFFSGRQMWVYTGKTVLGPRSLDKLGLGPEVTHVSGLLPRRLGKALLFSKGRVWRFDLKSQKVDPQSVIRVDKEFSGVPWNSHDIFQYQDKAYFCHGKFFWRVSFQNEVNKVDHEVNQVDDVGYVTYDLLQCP
Description: For oral delivery of AZD1236, n=6 adult male C57BL6 mice/group (Charles River, Margate, UK) were randomly allocated to either: (1), Sham (control; partial laminectomy but no DC crush injury); (2), DC crush injury+vehicle (partial laminectomy followed by DC crush injury and injection of vehicle); (3), DC crush injury+100 mg/kg AZD1236; (4), DC crush injury+200 mg/kg AZD1236; and (5), DC crush injury+300 mg/kg AZD1236. For intrathecal (it) delivery of AZD1236, adult male C57BL6 mice (25-30 g) (Charles River, Margate, UK) were randomly allocated to either: (1), Sham (control; partial laminectomy but no DC crush injury); (2), DC crush injury+vehicle (partial laminectomy followed by DC crush injury and injection of vehicle); (3), DC crush injury+2.5 mg/kg AZD1236; (4), DC crush injury+5 mg/kg AZD1236; and (5), DC crush injury+10 mg/kg AZD1236. For intrathecal delivery an indwelling atlanto-occipital intrathecal catheter was inserted into the intrathecal space, as described previously (F. A. Oladosu, B. P. Ciszek, S. C. O'Buckley, A. G. Nackley, Novel intrathecal and subcutaneous catheter delivery systems in the mouse. J Neurosci Methods 264, 119-128 (2016)). Briefly, with mice in the sternal recumbency a small incision was made at the nape of the neck followed by detachment of the muscles on either side of the external occipital crest to expose the A-O membrane. The membrane was incised and a 6 cm Alzet mouse intrathecal catheter (Alzet, Cupertino, Calif., USA) and polyurethane segments were gently guided 2.5 cm into the intrathecal space. The catheter was secured using 4-0 silk sutures (Oasis Medical, IL) and the exposed end of the catheter was sealed off with a stainless-steel plug and affixed to the upper back. Animals were injected immediately with vehicle or AZD1236 followed by a 10 μl PBS catheter flush. Injections were repeated every twice daily for the first 3 days after injury and drugs and vehicle reagents were delivered over 1 min time period using a Hamilton microlitre syringe (Hamilton Co, USA). Where specified intact animals with no surgical procedures were also used. All lesions were administered under 5% isofluorane induced inhalation anaesthesia, with 1.51/min O2. Pre- and post-injury analgesia was also provided.
DC crush injury was administered bilaterally at the T8 vertebral level as described previously (S. Surey, M. Berry, A. Logan, R. Bicknell, Z. Ahmed, Differential cavitation, angiogenesis and wound-healing responses in injured mouse and rat spinal cords. Neuroscience 275, 62-80 (2014); M. L. Read, S. Mir, R. Spice, R. J. Seabright, E. L. Suggate, Z. Ahmed, M. Berry, A. Logan, Profiling RNA interference (RNAi)-mediated toxicity in neural cultures for effective short interfering RNA design. J Gene Med 11, 523-534 (2009)). Briefly, calibrated watchmaker's forceps were separated by 0.5 mm and inserted through the dorsal cord meninges to a depth of 0.45 mm in mice and separated by 1 mm and inserted through the dorsal cord meninges to a depth of 1.0 mm in rats, and the DC were crushed for 3 seconds. AZD1236 or vehicle was administered twice daily by oral gavage or intrathecally, either immediately for the first 3 days or 24 hours after injury and treating twice daily until day 4 (i.e. 3 days of AZD1236 dosing). All experiments were performed with n=6 mice/group and repeated on at least 2-3 independent occasions (total=12-18 animals/group/test).
CC SCI was administered at the T7-T8 vertebral level after exposure of T6-T9 by laminectomy. […]

[2] = system: mice with DC crush injury; test: NF200+ spared fibres above and below the lesion; type: in vivo, mouse; settings: oral
[3] = system: other members of the enzyme family; test: Selectivity to other members of the enzyme family; type: biochemical, human; settings: relative to MMP-9 and MMP-12
MMP-9 [4] = target: T2, MMP-9 (Rattus norvegicus, UniProt P50282); test: MMP-9 activity after DC injury in rats; type: in vivo; settings: oral
T2 construct: from tissue; host or cells: Sprague-Dawley rat spinal cord lesion site
T2 sequence (P50282 108-708): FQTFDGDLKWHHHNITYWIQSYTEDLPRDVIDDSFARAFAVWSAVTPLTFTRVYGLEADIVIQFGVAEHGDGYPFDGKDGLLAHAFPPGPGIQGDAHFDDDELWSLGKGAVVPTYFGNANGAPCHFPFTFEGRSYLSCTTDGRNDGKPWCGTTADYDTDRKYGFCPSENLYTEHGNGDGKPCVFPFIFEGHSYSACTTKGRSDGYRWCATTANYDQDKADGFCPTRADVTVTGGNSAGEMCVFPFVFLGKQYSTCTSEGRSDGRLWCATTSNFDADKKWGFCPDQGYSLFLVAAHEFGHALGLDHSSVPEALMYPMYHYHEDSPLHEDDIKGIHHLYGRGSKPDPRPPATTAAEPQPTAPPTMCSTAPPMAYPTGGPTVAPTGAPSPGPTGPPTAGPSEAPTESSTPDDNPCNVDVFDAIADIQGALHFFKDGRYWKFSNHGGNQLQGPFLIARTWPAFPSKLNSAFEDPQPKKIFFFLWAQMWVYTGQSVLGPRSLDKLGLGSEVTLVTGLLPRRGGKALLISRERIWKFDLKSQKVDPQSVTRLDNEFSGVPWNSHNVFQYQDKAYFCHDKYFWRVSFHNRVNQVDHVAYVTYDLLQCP
Description: (§1) The efficacy of oral AZD3342 in the DC injury model in adult Sprague-Dawley rat was also assessed. Animals were divided into 6 groups: (1), Sham (control); (2), DC crush injury+Vehicle; (3), DC crush injury+15 mg/kg AZD3342; (4), DC crush injury+75 mg/kg […]; (5), DC crush injury+375 mg/kg AZD3342; and (6), DC crush injury+Melatonin. Animals were dosed twice daily with oral AZD3342 or vehicle with the experimenters masked to the treatment conditions. These experiments were performed with n=6 rats/group and repeated on 2-3 independent occasions (total n=12-18 rats/group/test).
The lesion site+3 mm either side for mouse (DC and CC SCI) and lesion site+5 mm either side for rat was dissected (n=6 mice/rats/group, 2 independent repeats, total n=12 mice/rats/group) and rapidly frozen in liquid N2 and stored at −80° C. until required. The enzymatic activity of MMP-9 and MMP-12 was determined in 96-well plates using the SensoLyte 520 MMP-9 and MMP-12 fluorimetric assay kit, according to the manufacturer's instructions (AnaSpec, Fremont, Calif., USA). Fluorescence intensity was measured using a Synergy H1 microplate reader (BioTek UK, Swindon, UK) at Ex/Em=490/520 nm.

[5] = system: rats with DC crush injury; test: Tape sensing and removal (sensory function) in rat DC model; type: in vivo; settings: over 6 weeks
Description: as §1
Functional testing after DC lesion and treatment was carried out as described previously (N. D. Fagoe, C. L. Attwell, R. Eggers, L. Tuinenbreijer, D. Kouwenhoven, J. Verhaagen, M. R. Mason, Evaluation of Five Tests for Sensitivity to Functional Deficits following Cervical or Thoracic Dorsal Column Transection in the Rat. PLoS One 11, e0150141 (2016)). […]
Tape removal test (sensory function): The tape removal test determines touch perception from the left hind paw. After holding animals with both hind-paws extended, the time it took for the animal to detect and remove a piece of tape of 15×15 mm (Kip Hochkrepp, Bocholt, Germany) affixed to the palm of the left hind-paw was recorded and used to calculate the mean sensing time.

| Structure (SMILES) | suppression of MMP-9 activity in CSF (MMP-9 [1]; intrathecal delivery) | suppression of MMP-9 activity in serum (MMP-9 [1]; intrathecal delivery) | suppression of MMP-9 activity in spinal cord tissues (MMP-9 [1]; intrathecal) | suppression of MMP-9 activity in CSF (MMP-9 [1]; oral delivery, 200 mg/kg) | suppression of MMP-9 activity in serum (MMP-9 [1]; oral delivery, 200 mg/kg) | suppression of MMP-9 activity in spinal cord tissues (MMP-9 [1]; oral) | time for MMP-9 activity to return to DC+Vehicle injury levels after withdrawal (MMP-9 [1]; injury site, oral dosing withdrawn after 3 d) | lowest most effective dose (MMP-9 [1]; intrathecal injection) | MMP-9 activity, 24-h delayed treatment (MMP-9 [1]; optimal doses, 24 h delay vs immediate) | lowest most effective dose (MMP-9 [1]; oral administration) | NF200+ spared fibres above (T9) and below (T7) the lesion site [2] | selectivity to other members of the enzyme family [3] | MMP-9 activity (MMP-9 [4]) | sensory function (tape sensing and removal) [5] |
| --- | --- | --- | --- | --- | --- | --- | --- | --- | --- | --- | --- | --- | --- | --- |
| C[C@]1(CS(=O)(=O)N2CC=C(C#Cc3cnc(C4CC4)nc3)CC2)NC(=O)NC1=O [AZD1236] | 88±2% | 71±2% | 87±5% | 74±2% | 90±2% | 88±4% | 4 days | 5 mg/kg | equally as effective as immediate delivery | 200 mg/kg | significantly preserved axon fibres | > 350 fold |  |  |
| C[C@]1(CS(=O)(=O)N2CCC(Oc3ccc(Cl)cn3)CC2)NC(=O)NC1=O [AZD3342, (5S)-5-[4-(5-chloro-pyridin-2-yloxy)-piperidine-1-sulfonylmethyl]-5-methylimidazolidine-2,4-dione] |  |  |  |  |  |  |  |  |  |  |  |  | significantly suppresses | significantly improved |
